Where “and” joins values, the source holds several entries; their conditions need not be identical. Equal entries are not always repeated.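 Method: 48-hour compound exposure of cells in 96-well plates, five concentrations, linear interpolation of endpoints. Here, GI50 denotes the concentration required for 50% inhibition of growth. At the TGI there is no net growth.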
Experiments:
Test in all cases: NCI-60 cell line screen, 48 h
[1] = system: TK-10 renal
[2] = system: BT-549 breast
[3] = system: SK-MEL-5 melanoma
[4] = system: 786-0 renal
[5] = system: HCC-2998 colon
[6] = system: OVCAR-3 ovarian
[7] = system: OVCAR-5 ovarian
[8] = system: KM12 colon
[9] = system: U251 CNS
[10] = system: NCI/ADR-RES ovarian
[11] = system: MDA-N

Row | SMILES | TGI [1] | TGI [2] | GI50 [3] | TGI [3] | TGI [4] | TGI [5] | GI50 [6] | TGI [6] | TGI [7] | TGI [8] | GI50 [9] | TGI [9] | TGI [10] | TGI [11] | GI50 [5] | GI50 [7] | GI50 [8] | GI50 [1] | GI50 [10]
1 | Cc1cnc2[nH]c(-c3ccc4ccccc4c3)cc(=O)c2c1 | > 100 µM | > 100 µM | 0.359 µM | > 100 µM | > 100 µM | > 100 µM | 0.352 µM | 10.6 µM | > 100 µM | > 100 µM | 0.464 µM | > 100 µM | – | – | – | – | – | – | –
2 | COc1cc(C2c3cc4c(cc3[C@@H](NCCN3CCOCC3)C3COC(=O)[C@H]23)OCO4)cc(OC)c1O (some centres undefined) | 21.7 µM and > 17.5 µM | – | 0.877 µM and 2.77 µM | 1.88 µM and 12.7 µM | 5.11 µM and 7.93 µM | 11.5 µM and 7.24 µM | – | 21.5 µM and 14.3 µM | – | 12.1 µM and > 17.5 µM | – | 5.46 µM and 5.53 µM | – | – | – | – | – | – | –
3 | c1ccc(CSC2(SCc3ccccc3)CCCCC2)cc1 | > 10 µM | – | – | > 10 µM | > 10 µM | > 10 µM | – | > 10 µM | – | > 10 µM | – | > 10 µM | > 10 µM | > 10 µM | – | – | – | – | –
4 | COc1ccc2nc3cc(Cl)ccc3c(SCC(=O)Nc3ccccc3-c3ccccc3NC(=O)CSc3c4ccc(Cl)cc4nc4ccc(OC)cc34)c2c1 | > 100 µM | – | – | > 100 µM | > 100 µM | > 100 µM | – | > 100 µM | > 100 µM | > 100 µM | – | > 100 µM | – | – | – | – | – | – | –
5 | O=CN1CCN(C(=O)c2ccc(Cl)c(Cl)c2)C1=S | 30.1 µM | 33.7 µM | – | – | 17.6 µM | 32.7 µM | – | 28.3 µM | 32.4 µM | 30.3 µM | – | 28 µM | > 100 µM | – | – | – | – | – | –
6 | CCCCCCCCC/C=C1\CCC(CN(C)C)C1=O (centres undefined) | 4.53 µM | – | – | 3.9 µM | 0.963 µM | 10.5 µM | – | – | 28 µM | 3.84 µM | – | 3.02 µM | – | – | – | – | – | – | –
7 | CCOc1cc2c(c(OCC)c1O)CC[C@@H]1[C@@H]2CC[C@]2(C)[C@@H](O)CC[C@@H]12 | > 100 µM | – | – | 21.5 µM | > 100 µM | – | 0.0896 µM | 3.08 µM | > 100 µM | 72.5 µM | – | – | 46 µM | 1.58 µM | – | – | – | – | –
8 | CCOc1ccc(N/C(=C(/C(Cl)=C(/Cl)NC(C)(C)C)[N+](=O)[O-])n2nnc3ccccc32)cc1 | – | 41.5 µM | – | – | 36.7 µM | > 100 µM | – | 72.2 µM | > 100 µM | 61.7 µM | – | 35.1 µM | > 100 µM | – | – | – | – | – | –
9 | ON=C(CC(O)(C(F)(F)Cl)C(F)(F)Cl)CC(O)(C(F)(F)Cl)C(F)(F)Cl | > 10 µM | – | – | > 10 µM | > 10 µM | > 10 µM | – | > 10 µM | – | > 10 µM | – | > 10 µM | > 10 µM | – | – | – | – | – | –
10 | O=C(CC(Cl)=C(Cl)Cl)c1ccccc1 | > 100 µM | > 100 µM | – | > 100 µM | 48 µM | – | – | 81.4 µM | > 100 µM | > 100 µM | – | > 100 µM | > 100 µM | – | – | – | – | – | –
11 | Cc1ccc(Nc2nc3c(=O)n(C)c(=O)n(C)c3nc2Nc2ccc(C)cc2)cc1 | 29.9 µM | – | – | 31 µM | 18.7 µM | 35.1 µM | – | – | 31.2 µM | 34.5 µM | – | 29.9 µM | 35.1 µM | 24.2 µM | – | – | – | – | –
12 | COc1ccccc1C1c2cc3c(cc2OC(N2CCOCC2)C1C)OCO3 (centres undefined) | > 100 µM | – | – | 31.2 µM | 42.2 µM | – | – | 29.5 µM | 41.1 µM | 39.6 µM | – | – | 61.6 µM | 24.8 µM | – | – | – | – | –
13 | CC(Oc1ccc(OCC2CCCCC2)cc1)C(=O)NCc1ccco1 (centres undefined) | > 100 µM | – | – | 31.4 µM | > 100 µM | > 100 µM | – | > 100 µM | – | > 100 µM | – | > 100 µM | – | – | – | – | – | – | –
14 | O=C1CC(NCc2ccccc2)c2c(Cl)sc(Cl)c21 (centres undefined) | > 68.7 µM | 69.8 µM | – | > 100 µM | 57.8 µM | 35.7 µM | – | 47.3 µM | > 100 µM | > 93.2 µM | – | 43.4 µM | > 86.3 µM | – | – | – | – | – | –
15 | NC(=O)NC12CC3CC(CC(F)(C3)C1)C2 | > 100 µM | – | – | – | > 100 µM | > 100 µM | – | > 100 µM | > 100 µM | > 100 µM | – | > 100 µM | – | – | – | – | – | – | –
16 | CC(=O)O[C@H]1CCC2[C@@H]3CCC4c5nonc5CC[C@]4(C)C3CC[C@@]21C (some centres undefined) | > 10 µM | – | – | > 10 µM | > 10 µM | > 100 µM | – | – | > 100 µM | > 100 µM | – | > 10 µM | – | – | > 100 µM | > 100 µM | > 100 µM | – | –
17 | COc1ccc2nc3cccc([N+](=O)[O-])c3c(NCCCO)c2c1 | – | 0.0146 µM and 0.0929 µM | – | 0.00431 µM | 0.0517 µM | – | – | – | 0.0177 µM and 0.0148 µM | 0.0146 µM and 0.0141 µM | – | 0.108 µM and 0.16 µM | 0.0276 µM and 0.248 µM | – | 0.00186 µM | 0.00181 µM | 0.00183 µM | 0.00188 µM | 0.00616 µM and 0.0229 µM
18 | Nc1nc(-c2ccco2)cc(-c2ccc(CO)o2)n1 | > 100 µM | – | – | > 100 µM | > 100 µM | – | – | > 100 µM | > 100 µM | > 100 µM | – | – | – | – | – | – | – | – | –
19 | N#CNC(=NCCc1c[nH]c2ccccc12)Oc1ccccc1 | > 100 µM | – | – | > 100 µM | > 100 µM | > 100 µM | – | > 100 µM | > 100 µM | > 100 µM | – | > 100 µM | – | – | – | – | – | – | –
